US10383332B2, “Antimicrobial compositions and related methods of use” (Jeneil Biosurfactant Company, LLC, priority 2013, dated 2019)

Experiments:
Experiment in all cases: Vapor test, microcup on PDA Petri plate
Details in all cases: vapors
Aspergillus fumigatus = system: Aspergillus fumigatus
Pythium ultimum = system: Pythium ultimum
Botrytis alli = system: Botrytis alli
Aspergillus niger = system: Aspergillus niger
Cercospora beticola = system: Cercospora beticola
Rhizoctonia solani = system: Rhizoctonia solani
Phytophthora palmivora = system: Phytophthora palmivora
Geotrichum candidum = system: Geotrichum candidum

With `CCC(=O)O` [Propanoic Acid, propanoic acid] the “% inhibition, alone at 20 μl After 24 hr (C)” value (shortened to “% inhibition, alone”) (Aspergillus fumigatus) was 0%, the “Alive or dead, alone at 20 μl After 24 hr (C)” value (“Alive or dead, alone” for short) (Aspergillus fumigatus) was “Alive” and the “% inhibition, alone” value (Pythium ultimum) was 80%. For the same compound, the “Alive or dead, alone” value (Pythium ultimum) was “Alive”, the “% inhibition, alone” value (Botrytis alli) was 0% and the “Alive or dead, alone” value (Botrytis alli) was “Alive”. The “% inhibition, alone” value (Aspergillus niger) was 0%, the “Alive or dead, alone” value (Aspergillus niger) was “Alive” and the “% inhibition, alone” value (Cercospora beticola) was 75%. The “Alive or dead, alone” value (Cercospora beticola) was “Alive”, the “% inhibition, alone” value (Rhizoctonia solani) was 80% and the “Alive or dead, alone” value (Rhizoctonia solani) was “Alive”. The “% inhibition, alone” value (Phytophthora palmivora) was 100%, the “% inhibition, alone” value (Geotrichum candidum) was 0% and the “Alive or dead, alone” value (Geotrichum candidum) was “Alive”.
